{"source": "patent US4767764A", "about": "“Alkoxyalkyl and alkylmercaptoalkyl substituted bridged benzofuroisoquinolines having opioid antagonist and/or appetite-controlling properties” (E. I. Du Pont de Nemours and Company, priority 1986, dated 1988)", "key": {"[1]": {"tested_on": "PQ-induced writhing in mice", "experiment": "animal or person", "type": "in vivo, mouse (male CF1)", "settings": "Mus musculus, sc, read-out: ED50, antagonism of PQ-induced writhing in mice"}, "[2]": {"target": "T1, mu opioid receptor (morphine analgesia) (Mus musculus, UniProt P42866)", "T1 construct": "Male CF1 mice (fasted 17-21 hours); from tissue; host or cells: live male CF1 mice (in vivo, whole animal; endogenous receptor)", "T1 sequence (P42866 whole entry)": "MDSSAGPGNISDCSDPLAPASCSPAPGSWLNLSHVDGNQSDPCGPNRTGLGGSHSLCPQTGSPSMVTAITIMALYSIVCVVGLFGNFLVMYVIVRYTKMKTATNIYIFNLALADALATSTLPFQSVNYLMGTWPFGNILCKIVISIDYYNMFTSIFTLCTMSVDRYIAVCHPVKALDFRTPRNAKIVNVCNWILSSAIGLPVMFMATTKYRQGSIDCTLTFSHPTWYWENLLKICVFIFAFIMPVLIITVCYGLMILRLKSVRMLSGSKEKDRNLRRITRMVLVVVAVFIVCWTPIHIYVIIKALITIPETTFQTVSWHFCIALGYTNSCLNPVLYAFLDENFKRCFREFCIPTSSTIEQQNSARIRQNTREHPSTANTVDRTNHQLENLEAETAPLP", "experiment": "antagonism of morphine analgesia in PQW test (mu antagonist potency)", "type": "in vivo, mouse (male CF1)", "settings": "sc, read-out: ED50, antagonism of morphine analgesia in PQW test (mu antagonist potency)"}, "[3]": {"target": "T2, kappa opioid receptor (U-50,488H analgesia) (Mus musculus, UniProt P33534)", "T2 construct": "Male CF1 mice (fasted 17-21 hours); from tissue; host or cells: live male CF1 mice (in vivo, whole animal; endogenous receptor)", "T2 sequence (P33534 whole entry)": "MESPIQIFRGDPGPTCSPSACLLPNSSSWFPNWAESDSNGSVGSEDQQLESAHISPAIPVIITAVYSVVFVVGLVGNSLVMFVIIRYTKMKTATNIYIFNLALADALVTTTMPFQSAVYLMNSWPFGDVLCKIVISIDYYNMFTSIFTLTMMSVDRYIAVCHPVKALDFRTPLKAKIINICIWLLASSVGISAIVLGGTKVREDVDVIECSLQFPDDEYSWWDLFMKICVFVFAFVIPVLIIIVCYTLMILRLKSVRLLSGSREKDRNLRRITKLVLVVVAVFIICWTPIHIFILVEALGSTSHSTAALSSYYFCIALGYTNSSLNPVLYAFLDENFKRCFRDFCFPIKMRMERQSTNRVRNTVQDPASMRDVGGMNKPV", "experiment": "in vivo", "parameters": "species or system mouse (male CF1)", "settings": "sc, read-out: ED50, antagonism of U-50,488H analgesia in PQW test (kappa antagonist potency)"}, "[4]": {"tested_on": "kappa receptor", "settings": "cited from earlier work"}, "[5]": {"tested_on": "feeding", "settings": "in vivo; cited from earlier work"}, "[6]": {"tested_on": "spinal cord injury", "settings": "rabbit, versus WIN 44,441-3; cited from earlier work"}, "[7]": {"tested_on": "food intake", "settings": "in vivo; cited from earlier work"}, "[8]": {"tested_on": "animal models of hemorrhagic, septic, and neurogenic shock", "settings": "in vivo; cited from earlier work"}, "[9]": {"tested_on": "μ (mu), κ (kappa) and δ (delta) opioid receptors", "settings": "established opioid antagonists; cited from earlier work"}}}
{"smiles": "CCCN1CCC23c4cccc(O)c4OC2C2CCC3(C1)C(CSC)C2", "note": "(stereo not drawn) [Example 5, 5-methylthiomethyl-3-n-propyl-1,2,3,4,5,6,7,7a-octahydro-4a,7-ethanobenzofuro[3,2-e]isoquinolin-9-ol]", "values": [{"measurement": "ED50", "setting": "[1]", "result": "> 81", "unit": "mg/kg"}, {"measurement": "ED50", "setting": "[2]", "result": 0.1, "unit": "mg/kg"}, {"measurement": "ED50", "setting": "[3]", "result": 0.063, "unit": "mg/kg"}]}
{"smiles": "CCCOCC1CC2CCC13CN(CCC)CCC31c3cccc(O)c3OC21", "note": "(stereo not drawn) [Example 3, 5-(n-Propoxymethyl)-3-n-propyl-1,2,3,4,5,6,7,7a-octahydro-4a,7-ethanobenzofuro[3,2-e]isoquinolin-9-ol]", "values": [{"measurement": "ED50", "setting": "[1]", "result": "> 81", "unit": "mg/kg"}, {"measurement": "ED50", "setting": "[2]", "result": 0.06, "unit": "mg/kg"}, {"measurement": "ED50", "setting": "[3]", "result": 0.025, "unit": "mg/kg"}]}
{"smiles": "CN1CC[C@]2(C)c3cc(O)ccc3C[C@H]1C2(C)CCC(=O)CCC1CCCC1.CS(=O)(=O)O", "note": "(stereo partly drawn) [WIN 44,441-3]", "values": [{"measurement": "kappa receptor activity/selectivity in words", "setting": "[4]", "result": "enhanced activity at the kappa receptor"}]}
{"smiles": "CC[C@]12CCN(CC3CC3)[C@H](C(=O)c3ccc(O)cc31)[C@@H]2C", "note": "[ethylketocyclazocine]", "values": [{"measurement": "stimulation of feeding", "setting": "[5]", "result": "more potent stimulators of feeding than the mu agonist morphine"}]}
{"smiles": "CCC1C2Cc3ccc(O)cc3C1(CC)CCN2Cc1ccoc1", "note": "(stereo not drawn) [MR 2266, reference compound]", "values": [{"measurement": "ED50", "setting": "[1]", "result": "> 81", "unit": "mg/kg"}, {"measurement": "ED50", "setting": "[2]", "result": 0.109, "unit": "mg/kg"}, {"measurement": "ED50", "setting": "[3]", "result": 0.115, "unit": "mg/kg"}]}
{"smiles": "C=CCN1CC[C@]23c4c5ccc(O)c4O[C@H]2C(=O)CC[C@@]3(O)[C@H]1C5", "note": "[Naloxone, naloxone]", "values": [{"measurement": "effectiveness in spinal stroke model", "setting": "[6]", "result": "less effective than WIN 44,441-3"}, {"measurement": "ED50", "setting": "[1]", "result": "> 81", "unit": "mg/kg"}, {"measurement": "decrease of food intake", "setting": "[7]", "result": "decrease food intake in several animal species"}, {"measurement": "effective doses for food intake versus mu mediated effects", "setting": "[7]", "result": "much larger than those useful in reversing mu mediated effects"}, {"measurement": "effective doses in shock models versus mu mediated effects", "setting": "[8]", "result": "several orders of magnitude higher than doses useful in reversing mu mediated effects"}, {"measurement": "improvement of hemodynamic parameters in shock models", "setting": "[8]", "result": "improve hemodynamic parameters in a variety of animal models of hemorrhagic, septic, and neurogenic shock"}]}
{"smiles": "Oc1cccc2c1OC1C3CCC4(CN(CC5CC5)CCC214)C(COCCCc1ccccc1)C3", "note": "(stereo not drawn) [Example 7, 3-cyclopropylmethyl-5-(3-phenyl-n-propoxymethyl)-1,2,3,4,5,6,7,7a-octahydro-4a,7-ethanolbenzofuro[3,2-e]isoquinolin-9-ol]", "values": [{"measurement": "ED50", "setting": "[1]", "result": "> 81", "unit": "mg/kg"}, {"measurement": "ED50", "setting": "[2]", "result": 0.29, "unit": "mg/kg"}, {"measurement": "ED50", "setting": "[3]", "result": 0.24, "unit": "mg/kg"}]}
{"smiles": "CCCN1CCC23c4cccc(O)c4OC2C2CCC3(C1)C(COC)C2", "note": "(stereo not drawn) [Example 1, 5-Methoxymethyl-3-n-propyl-1,2,3,4,5,6,7,7a-octahydro-4a,7-ethanobenzofuro[3,2-e]isoquinolin-9-ol]", "values": [{"measurement": "ED50", "setting": "[1]", "result": "> 81", "unit": "mg/kg"}, {"measurement": "ED50", "setting": "[2]", "result": 0.014, "unit": "mg/kg"}, {"measurement": "ED50", "setting": "[3]", "result": 0.004, "unit": "mg/kg"}]}
{"smiles": "COCC1CC2CCC13CN(CC1CC1)CCC31c3cccc(O)c3OC21", "note": "(stereo not drawn) [Example 6, 3-Cyclopropylmethyl-5-methoxymethyl-1,2,3,4,5,6,7,7a-octahydro-4a,7-ethanobenzofuro[3,2-e]isoquinolin-9-ol]", "values": [{"measurement": "ED50", "setting": "[1]", "result": "> 81", "unit": "mg/kg"}, {"measurement": "ED50", "setting": "[2]", "result": 0.008, "unit": "mg/kg"}, {"measurement": "ED50", "setting": "[3]", "result": 0.007, "unit": "mg/kg"}]}
{"smiles": "CCCOCC1CC2C=CC13CN(CCC)CCC31c3cccc(O)c3OC21", "note": "(stereo not drawn) [Example 4, 5-(n-propoxymethyl)-3-n-propyl-1,2,3,4,5,6,7,7a-octahydro-4a,7-ethenobenzofuro[3,2-e]isoquinolin-9-ol]", "values": [{"measurement": "ED50", "setting": "[1]", "result": "> 81", "unit": "mg/kg"}, {"measurement": "ED50", "setting": "[2]", "result": 0.19, "unit": "mg/kg"}, {"measurement": "ED50", "setting": "[3]", "result": 0.05, "unit": "mg/kg"}]}
{"smiles": "O=C1CC[C@@]2(O)[C@H]3Cc4ccc(O)c5c4[C@@]2(CCN3CC2CC2)[C@H]1O5", "note": "[Naltrexone, naltrexone]", "values": [{"measurement": "ED50", "setting": "[1]", "result": "> 81", "unit": "mg/kg"}, {"measurement": "decrease of food intake", "setting": "[7]", "result": "decrease food intake in several animal species"}, {"measurement": "effective doses for food intake versus mu mediated effects", "setting": "[7]", "result": "much larger than those useful in reversing mu mediated effects"}, {"measurement": "opioid receptor binding in words", "setting": "[9]", "result": "bind to all three types of receptors, with greatest affinity for the mu receptor"}]}
{"smiles": "CCCN1CCC23c4cccc(O)c4OC2C2CCC3(C1)C(COCC)C2", "note": "(stereo not drawn) [Example 2, 5-Ethoxymethyl-3-n-propyl-1,2,3,4,5,6,7,7a-octahydro-4a,7-ethanobenzofuro[3,2-e]isoquinolin-9-ol]", "values": [{"measurement": "ED50", "setting": "[1]", "result": "> 81", "unit": "mg/kg"}, {"measurement": "ED50", "setting": "[2]", "result": 0.024, "unit": "mg/kg"}, {"measurement": "ED50", "setting": "[3]", "result": 0.012, "unit": "mg/kg"}]}
